According to patent US5013756A, “Catechol derivatives, a process of preparation thereof, and therapeutical compositions containing the same” (priority 1985, dated 1991):
Each block holds one compound with its values, some of them ahead of it.

How the values were obtained:
soybean lipoxygenase = target: T1, soybean lipoxygenase (Glycine max, UniProt P08170); experiment: In vitro screening of compounds as potential inhibitors of soybean lipoxygenase (spectrophotometric assay, 15-HPETE at 236 nm); format: biochemical; details: pH 9.00, 10^-4 M arachidonic acid, 90 min, room temperature; for IC50: IC50 (concentration of 50% inhibition)
T1 sequence (P08170 1-839): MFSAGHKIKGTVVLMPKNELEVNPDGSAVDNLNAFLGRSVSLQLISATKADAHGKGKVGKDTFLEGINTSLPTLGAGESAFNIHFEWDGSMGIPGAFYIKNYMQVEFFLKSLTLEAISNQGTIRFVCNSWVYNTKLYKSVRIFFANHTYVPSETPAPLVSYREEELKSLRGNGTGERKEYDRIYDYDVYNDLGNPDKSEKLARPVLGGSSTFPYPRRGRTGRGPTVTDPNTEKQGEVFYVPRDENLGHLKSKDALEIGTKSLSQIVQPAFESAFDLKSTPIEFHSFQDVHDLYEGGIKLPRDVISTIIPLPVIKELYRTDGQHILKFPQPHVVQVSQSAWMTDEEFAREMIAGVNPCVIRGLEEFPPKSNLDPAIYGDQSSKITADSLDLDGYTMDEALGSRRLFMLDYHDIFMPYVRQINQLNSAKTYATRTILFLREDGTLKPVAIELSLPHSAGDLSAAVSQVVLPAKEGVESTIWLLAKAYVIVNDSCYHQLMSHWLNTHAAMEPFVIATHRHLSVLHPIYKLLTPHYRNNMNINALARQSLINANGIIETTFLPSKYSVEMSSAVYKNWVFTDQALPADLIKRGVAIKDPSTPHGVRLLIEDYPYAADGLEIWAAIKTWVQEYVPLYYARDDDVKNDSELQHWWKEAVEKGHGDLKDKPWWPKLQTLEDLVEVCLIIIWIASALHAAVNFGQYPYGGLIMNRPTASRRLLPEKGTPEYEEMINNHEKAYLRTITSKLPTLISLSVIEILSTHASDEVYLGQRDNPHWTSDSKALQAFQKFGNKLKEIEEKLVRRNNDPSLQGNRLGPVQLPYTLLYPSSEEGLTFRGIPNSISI
Method: A spectrophotometric method has been developed to determine the enzyme activity according to Corey E.J. et al. (J. Amer. Chem. Soc, 104, 1750-1752; 1982). In a final volume of 1.8 ml was mixed 0.2 M of aerated Borax buffer pH =9.00 with 500 units of soybean lipoxygenase. When inhibitors were tested, they were added in 0.6 ml at final concentrations ranging from 10^-3 M to 10^-8 M followed by a preincubation of 10 minutes at room temperature. The reaction was initiated by 10^-4 M arachidonic acid. Following incubation at room temperature for 90 minutes, 15-HPETE was determined by absorbance measurements at 236 nm.
This method was validated with known inhibitors of lipoxygenase. For each test substance a control was included with boiled lipoxygenase in order to take into account any absorption of the compound at the wavelength used.

xanthine oxidase = xanthine oxidase (Bos taurus, UniProt P80457); experiment: In vitro screening of compounds as potential inhibitors of xanthine oxidase; format: biochemical; details: xanthine oxidase 0.01 units/ml, xanthine 5.10^-5 M, pH 7.4
Sequence of xanthine oxidase (P80457 whole entry): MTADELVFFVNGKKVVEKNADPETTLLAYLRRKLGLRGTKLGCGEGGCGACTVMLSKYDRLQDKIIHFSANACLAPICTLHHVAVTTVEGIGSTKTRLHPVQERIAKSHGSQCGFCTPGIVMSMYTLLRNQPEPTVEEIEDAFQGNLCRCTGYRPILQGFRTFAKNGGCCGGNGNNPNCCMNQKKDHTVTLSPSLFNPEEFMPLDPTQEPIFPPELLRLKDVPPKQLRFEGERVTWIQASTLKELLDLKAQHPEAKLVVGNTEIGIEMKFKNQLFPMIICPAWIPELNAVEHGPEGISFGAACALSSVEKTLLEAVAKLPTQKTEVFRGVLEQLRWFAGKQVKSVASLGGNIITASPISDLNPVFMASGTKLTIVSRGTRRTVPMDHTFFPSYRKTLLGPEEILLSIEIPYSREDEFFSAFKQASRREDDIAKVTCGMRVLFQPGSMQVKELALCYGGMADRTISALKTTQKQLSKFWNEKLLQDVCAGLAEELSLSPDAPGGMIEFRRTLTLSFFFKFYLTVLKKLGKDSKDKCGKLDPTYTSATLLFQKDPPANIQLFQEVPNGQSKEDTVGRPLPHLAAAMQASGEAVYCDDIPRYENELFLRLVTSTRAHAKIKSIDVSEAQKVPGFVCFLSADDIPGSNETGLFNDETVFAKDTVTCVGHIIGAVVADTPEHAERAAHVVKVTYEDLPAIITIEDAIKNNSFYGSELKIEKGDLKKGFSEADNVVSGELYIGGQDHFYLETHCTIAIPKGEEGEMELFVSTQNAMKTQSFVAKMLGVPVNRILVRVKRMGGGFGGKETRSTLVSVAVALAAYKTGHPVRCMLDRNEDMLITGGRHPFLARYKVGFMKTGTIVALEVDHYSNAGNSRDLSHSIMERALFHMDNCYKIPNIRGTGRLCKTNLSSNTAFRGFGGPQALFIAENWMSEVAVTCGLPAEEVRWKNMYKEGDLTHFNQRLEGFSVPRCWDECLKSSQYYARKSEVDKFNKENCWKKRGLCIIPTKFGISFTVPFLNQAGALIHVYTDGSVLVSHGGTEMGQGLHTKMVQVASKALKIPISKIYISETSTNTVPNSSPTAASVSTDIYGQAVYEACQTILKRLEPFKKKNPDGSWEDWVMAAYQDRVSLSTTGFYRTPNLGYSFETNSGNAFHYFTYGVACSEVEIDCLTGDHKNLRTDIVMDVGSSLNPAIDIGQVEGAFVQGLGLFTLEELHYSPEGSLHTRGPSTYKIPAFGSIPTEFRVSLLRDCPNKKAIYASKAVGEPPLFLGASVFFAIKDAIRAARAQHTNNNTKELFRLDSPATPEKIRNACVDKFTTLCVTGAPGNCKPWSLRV
Source text: A unit of activity was defined as a change of 0.001 units/minute.

[1] = target: T2, cyclooxygenase (human platelets microsomes) (Homo sapiens, UniProt P23219); experiment: Cycloxygenase inhibition in human platelets microsomes; format: biochemical; details: cyclooxygenase (PGE2/TxB2), pH 7.9, 37° C.
T2 construct: human platelets microsomes; from tissue; host or cells: human platelet microsomes (microsomal powder)
T2 sequence (P23219 24-599): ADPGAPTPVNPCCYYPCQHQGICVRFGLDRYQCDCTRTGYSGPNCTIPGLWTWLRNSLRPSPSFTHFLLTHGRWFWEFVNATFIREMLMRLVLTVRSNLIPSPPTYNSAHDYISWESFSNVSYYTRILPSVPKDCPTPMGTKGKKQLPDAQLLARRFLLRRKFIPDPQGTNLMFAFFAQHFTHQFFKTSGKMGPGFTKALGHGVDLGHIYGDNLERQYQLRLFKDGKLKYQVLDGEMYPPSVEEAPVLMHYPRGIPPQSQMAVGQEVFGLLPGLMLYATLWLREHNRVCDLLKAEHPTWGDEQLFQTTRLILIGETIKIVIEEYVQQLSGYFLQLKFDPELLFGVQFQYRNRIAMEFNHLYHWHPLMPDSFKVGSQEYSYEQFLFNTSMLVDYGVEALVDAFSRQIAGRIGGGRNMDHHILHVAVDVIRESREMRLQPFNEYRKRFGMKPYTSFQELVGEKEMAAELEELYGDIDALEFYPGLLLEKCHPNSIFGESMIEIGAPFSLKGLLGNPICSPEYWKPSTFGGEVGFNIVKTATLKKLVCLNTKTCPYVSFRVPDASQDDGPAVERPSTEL
Method: The enzymatic assay was carried out in silanized glassware according to the procedure of P. Ho, P. Walters and H, Sullivan (Prostaglandins 12, 951 1976). The reaction mixture containing 50 mM Tris HCl buffer, pH 7.9, 5mM 2-Tryptophan, […] methemoglobin, 0.2 mg of microsomal powder, and the test compound in a total volume of 0.2 ml was incubated at 37° C. for 5 minutes before the addition of 10 μl of 20 μM^14 C arachidonic acid (0.08 μCI). After 5 minute incubation, the reaction was terminated by the addition of 10 μl of 1M citric acid.
The mixture was extracted four times with 0.5 ml of anhydrous diethyl ether and dried with sodium sulphate. The residue was resuspended in approximately 40 μl of ether and submitted to chromatography on silica gel plates. The elution system consisted of diethyl ether/methanol/acetic acid (90:1:2). The RF values were measured relative to arachidonic acid. Thin layer chromatography plates (TLC) were exposed on LKB ultrafilm for about 24 hours. Partial identification of the spots were carried out by running standards (PGA2, PGB2, PGE2, PGF2c, PXB2, arachidonic acid) in the same solvent system. Quantitative results were obtained by scanning the developed film with a transmission densitometer (EC Apparatus 910) interfaced with a Hewlett Packard 3390A integrator.
The activity of the substances of the cyclooxygenase is quantified by the 2 spots corresponding to PGE2 and TxB2 (ratio PGE2 /TxB2).

HHT (human leucocytes) = experiment: Experiment No. 2: HHT formation in human leucocytes stimulated by ionophore and arachidonic acid; format: cell-based; details: Leucocyte, ionophore A23187 and arachidonic acid
Method: (§1) (b) Inhibition on 5-, 12- and 15- lipoxygenases human polynuclear
(§2) Protocol for experiment No. 2:
(§3) 2. Stimulation with 10 μg of arachidonic acid and 1 μg of ionophore (A23187)/ml for 4 minutes.
(§4) 3. Stopping of the incubation with 1 volume of methanol and analysis by RP-HPLC.
(§5) 4. Measurement of the height of the peaks and comparison with the internal standard (PGB2).

[2] = target: T3, 12-lipoxygenase (human leucocytes) (Homo sapiens, UniProt P18054); experiment: Experiment No. 2: inhibition of 12-lipoxygenase in human leucocytes stimulated by ionophore and arachidonic acid (12-HETE); format: cell-based; details: Experiment No. 2, 12-HETE, ionophore A23187 and arachidonic acid
T3 construct: human leucocytic lipoxygenase; endogenous in cells; host or cells: human (polynuclear) leucocytes
T3 sequence (P18054 1-663): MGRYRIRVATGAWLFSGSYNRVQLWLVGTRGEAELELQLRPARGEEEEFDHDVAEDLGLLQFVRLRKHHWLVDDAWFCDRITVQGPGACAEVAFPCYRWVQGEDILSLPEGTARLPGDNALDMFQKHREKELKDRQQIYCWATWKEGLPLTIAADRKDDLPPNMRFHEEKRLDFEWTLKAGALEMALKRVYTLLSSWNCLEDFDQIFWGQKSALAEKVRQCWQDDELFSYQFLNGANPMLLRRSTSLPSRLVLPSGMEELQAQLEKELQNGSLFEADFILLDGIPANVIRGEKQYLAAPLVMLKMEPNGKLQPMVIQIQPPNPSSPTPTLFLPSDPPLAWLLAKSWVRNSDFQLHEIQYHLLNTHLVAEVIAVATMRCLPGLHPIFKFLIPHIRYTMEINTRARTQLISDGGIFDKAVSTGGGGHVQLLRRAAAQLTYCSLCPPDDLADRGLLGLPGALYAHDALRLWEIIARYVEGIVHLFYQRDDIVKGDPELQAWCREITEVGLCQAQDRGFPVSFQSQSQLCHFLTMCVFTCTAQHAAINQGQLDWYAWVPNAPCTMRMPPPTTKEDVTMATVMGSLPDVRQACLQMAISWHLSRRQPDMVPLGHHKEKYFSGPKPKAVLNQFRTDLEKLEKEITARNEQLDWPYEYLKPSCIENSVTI
Method: as §1, §2, §3, §4, §5
(§6) It will be noted that in experiment No. 1, the leucocytes have been stimulated by the ionophore alone whereas in experiment No. 2, the cells have been stimulated with ionophore and arachidonic acid.

[3] = target: T4, 5-lipoxygenase (human leucocytes) (Homo sapiens, UniProt P09917); experiment: Experiment No. 2: inhibition of 5-lipoxygenase in human leucocytes stimulated by ionophore and arachidonic acid (5-HETE, LTB4); format: cell-based
T4 construct: human leucocytic lipoxygenase; endogenous in cells; host or cells: human (polynuclear) leucocytes
T4 sequence (P09917 1-674): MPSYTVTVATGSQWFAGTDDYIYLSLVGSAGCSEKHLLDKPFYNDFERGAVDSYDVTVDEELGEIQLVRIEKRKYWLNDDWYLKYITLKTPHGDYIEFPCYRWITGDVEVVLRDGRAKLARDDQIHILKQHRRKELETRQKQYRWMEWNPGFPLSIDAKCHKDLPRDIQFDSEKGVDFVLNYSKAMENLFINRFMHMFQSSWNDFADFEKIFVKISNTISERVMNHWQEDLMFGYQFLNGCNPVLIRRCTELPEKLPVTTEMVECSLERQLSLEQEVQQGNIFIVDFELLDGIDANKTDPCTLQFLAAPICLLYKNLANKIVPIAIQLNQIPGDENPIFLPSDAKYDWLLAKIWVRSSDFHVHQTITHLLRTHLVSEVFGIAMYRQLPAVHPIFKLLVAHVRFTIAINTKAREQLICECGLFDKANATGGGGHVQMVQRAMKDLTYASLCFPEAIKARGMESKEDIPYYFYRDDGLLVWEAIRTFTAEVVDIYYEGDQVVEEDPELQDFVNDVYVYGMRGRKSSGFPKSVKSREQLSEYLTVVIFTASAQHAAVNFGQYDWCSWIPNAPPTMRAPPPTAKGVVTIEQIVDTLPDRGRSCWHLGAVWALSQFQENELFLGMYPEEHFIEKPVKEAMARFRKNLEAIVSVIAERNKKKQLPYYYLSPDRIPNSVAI
Method: as §1, §2, §3, §4, §5, §6

[4] = target: T5, 15-lipoxygenase (human leucocytes) (Homo sapiens, UniProt P16050); experiment: Experiment No. 2: inhibition of 15-lipoxygenase in human leucocytes stimulated by ionophore and arachidonic acid (15-HETE); format: cell-based; details: Experiment No. 2, 15-HETE, ionophore A23187 and arachidonic acid
T5 construct: endogenous in cells; host or cells: human (polynuclear) leucocytes
T5 sequence (P16050 1-662): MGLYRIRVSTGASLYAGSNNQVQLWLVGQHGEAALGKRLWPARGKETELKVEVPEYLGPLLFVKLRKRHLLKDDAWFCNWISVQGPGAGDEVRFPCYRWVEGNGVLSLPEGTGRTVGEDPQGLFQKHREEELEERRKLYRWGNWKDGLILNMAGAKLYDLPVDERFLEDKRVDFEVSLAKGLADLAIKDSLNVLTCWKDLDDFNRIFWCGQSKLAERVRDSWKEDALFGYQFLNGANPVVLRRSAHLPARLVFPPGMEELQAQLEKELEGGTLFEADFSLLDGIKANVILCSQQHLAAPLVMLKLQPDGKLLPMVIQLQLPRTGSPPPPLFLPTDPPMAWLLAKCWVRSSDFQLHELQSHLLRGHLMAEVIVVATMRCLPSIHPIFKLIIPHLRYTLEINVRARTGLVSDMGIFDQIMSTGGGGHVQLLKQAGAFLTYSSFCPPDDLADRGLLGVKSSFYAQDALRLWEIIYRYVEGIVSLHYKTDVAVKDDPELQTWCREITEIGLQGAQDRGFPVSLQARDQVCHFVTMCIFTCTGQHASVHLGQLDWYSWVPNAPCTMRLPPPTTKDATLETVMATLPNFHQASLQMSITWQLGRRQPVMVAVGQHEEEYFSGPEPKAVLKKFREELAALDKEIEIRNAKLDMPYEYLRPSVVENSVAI
Method: as §1, §2, §3, §4, §5, §6

[5] = target: T4, 5-lipoxygenase (human leucocytes); experiment: Experiment No. 1: inhibition of 5-lipoxygenase in human leucocytes stimulated by ionophore (5-HETE, LTB4); format: cell-based; details: Experiment No. 1, 5-HETE, ionophore A23187 alone
Method: (§7) (a) Inhibition on 5- and 12- lipoxygenases human polynuclear
(§8) Protocol for experiment No. 1:
(§9) 2. Stimulation with 1 μg ionophore (A23187)/ml for 4 minutes.
(§10) 3. Stopping of the incubation with 1 volume of methanol.
(§11) 4. Analysis by RP-HPLC, colomn C18, 5 μm.
(§12) 5. Measurement of the height of the peaks and comparison with the internal standard (PGB2).

[6] = target: T3, 12-lipoxygenase (human leucocytes); experiment: Experiment No. 1: inhibition of 12-lipoxygenase in human leucocytes stimulated by ionophore (12-HETE); format: cell-based; details: Experiment No. 1, 12-HETE, ionophore A23187 alone
Method: as §7, §8, §9, §10, §11, §12

[7] = Experiment No. 2, 5-HETE, ionophore A23187 and arachidonic acid, read-out: IC50 5-HETE
[8] = Experiment No. 2, LTB4, ionophore A23187 and arachidonic acid, read-out: IC50 LTB4 (converted)

IC50 (soybean lipoxygenase): 24.5 µM
Structure (SMILES): CCCCCCC(C)Sc1ccc(O)c(O)c1 (stereo not drawn) [drawing 10]

IC50 (concentration of 50% inhibition) (soybean lipoxygenase): Not active
Structure (SMILES): N=C(N)Sc1ccc(O)c(O)c1

IC50 (xanthine oxidase): 511 µM
Structure (SMILES): CCC(C)CSc1ccc(O)c(O)c1 (stereo not drawn) [drawing 28]

IC50 [1]: 3.46 µM
Structure (SMILES): CCCCCCC(C)Sc1ccc(O)c(O)c1 (stereo not drawn) [drawing 23]

IC50 (HHT (human leucocytes)): 2 µM
IC50 [2]: 2 µM
IC50 [3, 7]: 1 µM
IC50 [3, 8]: 1 µM
IC50 [4]: 10 µM
Structure (SMILES): CCCCCCC(C)Sc1ccc(O)c(O)c1 (stereo not drawn) [drawing 34]

IC50 [5]: 2 µM
IC50 [6]: 2 µM
Structure (SMILES): Oc1ccc(S)cc1O [drawing 31]

IC50 (xanthine oxidase): 557 µM
Structure (SMILES): CCCCCCC(C)Sc1ccc(O)c(O)c1 (stereo not drawn) [drawing 29]

IC50 (soybean lipoxygenase): 27.6 µM
Structure (SMILES): CCCCCCC(C)Sc1ccc(O)c(O)c1 (stereo not drawn) [drawing 9]

IC50 [1]: 4.31 µM
Structure (SMILES): CCC(C)CSc1ccc(O)c(O)c1 (stereo not drawn) [drawing 21]

IC50 (HHT (human leucocytes)): 20 µM
IC50 [3, 7]: 1 µM
IC50 [3, 8]: 3 µM
IC50 [4]: 50 µM
Structure (SMILES): Oc1ccc(S)cc1O [drawing 32]
